Data from PMC4026384, “Antibacterial Activity of THAM Trisphenylguanide against Methicillin-Resistant Staphylococcus aureus” (PLoS ONE, 2014).
≈ marks a conversion by molar mass, not a printed value. Like-named read-outs stand apart in the source and are kept apart here.

Key:
MRSA USA300 = experiment: Bacterial viability assay; type: cell-based, Staphylococcus aureus; details: Staphylococcus aureus, 1 h, one hour in PBS, CFU, ± SEM
Procedure: (§1) Supplementary file pone.0097742.s003.doc: Table S1 Bacterial viability assays. Bacteria were grown at 37°C to mid-log phase (OD600 ∼0.4). The bacteria were diluted to approximately 10^4 to 10^5 colony forming units (CFU) per milliliter and added to a solution of phosphate buffered saline (PBS, 16 mM phosphate, 0.14 M NaCl, pH 7.2) containing the compound at varied concentrations. Samples were incubated at 37°C for one hour and then plated on Luria Bertani (LB) agar at appropriate dilutions in PBS. The plates were incubated overnight at 37°C and colonies enumerated the following day. IC50s were calculated from graphs of CFU as a function of compound concentration. Chlorhexidine was used as a positive control. […] (DOC) Click here for additional data file.
(§2) Bacterial viability assays. Bacteria were grown at 37°C to mid-log phase (OD600 ~0.4). The bacteria were diluted to approximately 10^4 to 10^5 colony forming units (CFU) per milliliter and added to a solution of phosphate buffered saline (PBS, 16 mM phosphate, 0.14 M NaCl, pH 7.2) containing the compound at varied concentrations. Samples were incubated at 37°C for one hour and then plated on Luria Bertani (LB) agar at appropriate dilutions in PBS. The plates were incubated overnight at 37°C and colonies enumerated the following day. IC50s were calculated from graphs of CFU as a function of compound concentration. Chlorhexidine was used as a positive control.

[1] = Cell toxicity assay (MTS); type: cell-based, human; details: human, MTS assay, concentration which killed 50% of the cells
Procedure: The HaCaT cell line was grown in Epilife medium (MEPI500Ca) with human keratinocyte growth supplement (Invitrogen, San Diego, CA). Both types of cells were harvested using Tryspin/EDTA and diluted to 1×10^5 cells per well in a 96-well plate. Ten concentrations covering five orders of magnitude were tested with six replicates per concentration. […] MTS/PMS solution (Promega, Madison, WI) was added to the wells and absorbance was measured at 490 nm two to four hours later. Data was analyzed using GraphPad Prism version 5.0 (GraphPad Software, La Jolla, CA) using a variable slope inhibition dose response curve.

S. aureus RN4220 = experiment: Bacterial viability assay; type: cell-based, Staphylococcus aureus; details: Staphylococcus aureus, 1 h, one hour in PBS, CFU, ± SEM
Procedure: (§3) Supplementary file pone.0097742.s003.doc: Table S1 Bacterial viability assays. Bacteria were grown at 37°C to mid-log phase (OD600 ∼0.4). The bacteria were diluted to approximately 10^4 to 10^5 colony forming units (CFU) per milliliter and added to a solution of phosphate buffered saline (PBS, 16 mM phosphate, 0.14 M NaCl, pH 7.2) containing the compound at varied concentrations. Samples were incubated at 37°C for one hour and then plated on Luria Bertani (LB) agar at appropriate dilutions in PBS. The plates were incubated overnight at 37°C and colonies enumerated the following day. IC50s were calculated from graphs of CFU as a function of compound concentration. Chlorhexidine was used as a positive control. Included are those guanide (G), biguanide (BG), phenylguanide (ΦG) compounds that had some antibacterial activity in an initial screen at 30 and 100 µM, as well as their and parent amines. Compounds synthesized from 1,4-butanediamine, 1,6-hexanediamine, trisethylaminomelamine, trisbutylaminomelamine, and the dendrimer PAMAM (G0) were not active against E. coli, P aeruginosa, or S. aureus so they were not tested against the remaining bacteria (data not shown). (DOC) Click here for additional data file.
as §3, with “Bacterial” for “Supplementary file pone.0097742.s003.doc: Table S1 Bacterial”, “~0.4).” for “∼0.4).”, “μM,” for “µM,”, “shown).” for “shown). (DOC) Click here for additional data file.”

E. faecalis V583 = experiment: Bacterial viability assay; type: cell-based, Enterococcus faecalis; details: Enterococcus faecalis, 1 h, one hour in PBS, CFU, ± SEM
Procedure: as §1, §2

E. faecalis MSU#10 = experiment: Bacterial viability assay; type: cell-based, Enterococcus faecalis; details: Enterococcus faecalis, 1 h
Procedure: as §1, §2

MRSA strain LAC, USA300 = experiment: Minimum inhibitory concentration (microdilution); type: cell-based, Staphylococcus aureus
Procedure: (§4) Minimum inhibitory concentration (MIC) values were determined for those compounds showing the most antibacterial activity in the bacterial viability assays (see Supplemental Materials) against each of the strains of bacteria using a microdilution method in 96 well plates with LB media according to guidelines published by the British Society for Antimicrobial Chemotherapy. Minimum bactericidal concentrations (MBC) were determined by plating 10 µL and 100 µL from each well showing no signs of growth after overnight incubation of the MIC plates and determining the minimum concentration showing a 3-log reduction of viable bacteria. MIC and MBC were also determined in cation-adjusted Mueller-Hinton broth (Hardy Diagnostics, Santa Maria, CA) for some compounds and strains.

MRSA = experiment: Time-to-kill (kill curve) assay; type: cell-based, Staphylococcus aureus
Procedure: Bacteria were cultured to mid-log phase (OD600 ∼0.4) in LB media with shaking and then diluted to approximately 10^4 to 10^5 CFU/mL. Bacteria were then treated with compound at the MIC, 2×MIC, and 4×MIC (as determined by the MIC assays). Over the course of 24 hours, bacteria were incubated at 37°C and aliquots removed at various time intervals, diluted, and plated on LB agar. Plated bacteria were incubated overnight at 37°C and CFU/mL were calculated for each time interval.

E. coli K91 = experiment: Bacterial viability assay; type: cell-based, Escherichia coli; details: Escherichia coli, 1 h, one hour in PBS, CFU, ± SEM
Procedure: as §1, §2

[2] = test system: Escherichia coli (strain K91); experiment: Minimum bactericidal concentration; type: cell-based; details: E. coli K91; MHB; median; 3-log reduction of viable bacteria
Procedure: as §4

[3] = test system: Staphylococcus aureus RN4220; experiment: Minimum bactericidal concentration; type: cell-based; details: S. aureus RN4220; MHB; median; 3-log reduction of viable bacteria
Procedure: as §4

[4] = MDA-MB-231 breast cancer cells (ATCC HTB-26), MDA-231
[5] = Staphylococcus aureus, MRSA USA300, LB media, median of at least 3 determinations, read-out: MIC

SMILES	IC50 (MRSA USA300) [µM]	CC50 ([1]; HaCaT keratinocytes) [µg/mL]	CC50 [1, 4] [µg/mL]	IC50 (S. aureus RN4220) [µM]	IC50 (E. faecalis V583) [µM]	IC50 (E. faecalis MSU#10) [µM]	MIC (MRSA strain LAC, USA300; MRSA USA300, MHB, median) [µg/mL]	MIC (MRSA strain LAC, USA300; [5]) [µg/mL]	time by which bactericidal activity was seen (MRSA; 1× to 4×MIC) [h]	IC50 (E. coli K91) [µM]	MBC [2] [µg/mL]	MBC [3] [µg/mL]	IC50 (E. faecalis MSU#10; E. faecalis MSU#10, one hour in PBS, CFU, ± SEM, read-out: IC50) [µM]	MIC (MRSA strain LAC, USA300; Staphylococcus aureus, against MRSA, as stated in the abstract, read-out: MIC) [µg/mL]	reduction in CFU/mL (MRSA; 4×MIC, within 4 hours post treatment) [log]	time after which no viable cells remained (MRSA; at the MIC) [h]
[H]/N=C(\N/C(=N/[H])NCCCCCCNC(=N)NC(=N)Nc1ccc(Cl)cc1)Nc1ccc(Cl)cc1 [Chlorhexidine, chlorhexidine, reference compound]	13	1.9 (≈ 3.76 µM)	2.6 (≈ 5.14 µM)	0.86 ± 0.21	16 ± 6	14 ± 6	0.67 (≈ 1.33 µM)	1 (≈ 1.98 µM)	≤ 24	1.7 ± 0.6	0.44 (≈ 0.87 µM)	0.89 (≈ 1.76 µM)				
N=C(NCCCCCCNc1nc(NCCCCCCNC(=N)Nc2ccccc2)nc(NCCCCCCNC(=N)Nc2ccccc2)n1)Nc1ccccc1 [THAM-3ΦG, Trishexylaminomelamine trisphenylguanide]	3.9 ± 0.5	14 (≈ 18 µM)	7.6 (≈ 9.77 µM)	1.7 ± 0.9	65 ± 1		1 (≈ 1.29 µM)	2 (≈ 2.57 µM)		3.8 ± 1.6	16 (≈ 20.6 µM)	2 (≈ 2.57 µM)	2.8 ± 0.6	~1 (≈ 1.29 µM)	3	24
